Laboratory results as given in patent US20130191933A1, “METHODS OF TREATING PAIN AND MORPHINE TOLERANCE VIA MODULATION OF HEDGEHOG SIGNALLING PATHWAY” (BOARD OF REGENTS, THE UNIVERSITY OF TEXAS SYSTEM, priority 2010, published 2013).
“Also recorded” adds a separate entry of the source. Where two headings read alike, the source gives them in different places.

Legend:
[1] = test system: Gli-mediated transcription; details: cited from earlier work; for Gli-mediated transcription: in a variety of cell types (Cur-61414: cell and tissues types; Robotnikinin: also synthetic human tissue)
[2] = biological target: Smo (Homo sapiens, UniProt Q99835); details: cited from earlier work
Chain of Smo (Q99835 28-787): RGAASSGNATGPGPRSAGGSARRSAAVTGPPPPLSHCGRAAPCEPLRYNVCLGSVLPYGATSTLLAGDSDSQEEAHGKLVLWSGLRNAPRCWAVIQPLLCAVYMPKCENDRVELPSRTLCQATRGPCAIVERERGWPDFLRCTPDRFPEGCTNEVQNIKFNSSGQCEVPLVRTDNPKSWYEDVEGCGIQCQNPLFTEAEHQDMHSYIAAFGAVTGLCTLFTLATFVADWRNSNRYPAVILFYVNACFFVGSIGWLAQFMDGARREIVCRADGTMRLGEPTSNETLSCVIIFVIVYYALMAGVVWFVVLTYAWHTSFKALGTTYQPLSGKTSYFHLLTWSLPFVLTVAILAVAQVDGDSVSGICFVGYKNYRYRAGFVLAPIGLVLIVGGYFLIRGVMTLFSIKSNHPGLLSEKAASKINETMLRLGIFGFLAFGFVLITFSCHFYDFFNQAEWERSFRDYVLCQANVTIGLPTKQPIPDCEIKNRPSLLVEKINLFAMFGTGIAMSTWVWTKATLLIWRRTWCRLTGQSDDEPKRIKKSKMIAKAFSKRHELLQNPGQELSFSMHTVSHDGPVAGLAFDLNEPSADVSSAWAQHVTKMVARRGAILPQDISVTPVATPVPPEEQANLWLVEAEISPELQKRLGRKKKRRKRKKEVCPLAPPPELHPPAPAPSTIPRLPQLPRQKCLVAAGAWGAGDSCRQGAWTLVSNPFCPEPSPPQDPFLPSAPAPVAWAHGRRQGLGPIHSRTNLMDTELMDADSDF

[3] = test system: rats with sciatic nerve ligation (neuropathic pain); experiment: Neuropathic pain paradigm: sciatic nerve ligation, mechanical allodynia by Von Frey filaments; type: in vivo, Sprague-Dawley rats; details: rats two weeks after sciatic nerve ligation; daily intrathecal (lumbar puncture) drug; sub-clinical/low dose of morphine
Experimental: Animals underwent sciatic nerve ligation as described (Chung et al.), and were then allowed to recover for two weeks. Allodynia was measured using mechanical withdrawal threshold (Von Frey hairs). […] Drugs were administered using lumbar puncture under anesthesia.
Hh signaling modulates neuropathic pain, inflammatory pain, and opioid tolerance in rats. […] With regards to neuropathic pain, animals underwent sciatic nerve ligation as previously described in Chung et al., and were then allowed to recover for two weeks. Allodynia was measured by assessing the withdrawal threshold to a mechanical stimulus (Von Frey hairs). […] Drugs were administered using lumbar puncture under anesthesia.
To test this, we examined the effects of pharmacologically blocking Smoothened activity in rodent pain models. Injection of Complete Freund's Adjuvant (CFA) into the rat hindpaw causes local inflammation, swelling, and decreased nociceptive thresholds, Stein, C., et al., A. Unilateral inflammation of the Hindpaw in rats as a Model of Prolonged Noxious Stimulation: Alterations in Behavior and Nociceptive Thresholds, Pharmacol Biochem Behav 31, […] (1988). FIG. 11 provides an inflammatory pain paradigm. Here, the hindpaws were injected with saline (sham, n=6), or CFA. […] Similarly, FIG. 10 provides a neuropathic pain paradigm. […] Mechanical allodynia was assessed using Von Frey filaments. […]

[4] = test system: rats with complete Freund's adjuvant (CFA) injection (inflammatory pain); experiment: Inflammatory pain paradigm: CFA hindpaw injection, thermal hyperalgesia by paw withdrawal latency (PWL); type: in vivo, Sprague-Dawley rats; details: rats after CFA hindpaw injection; for analgesic effect on thermal hyperalgesia (paw withdrawal latency, PWL): intrathecal (lumbar puncture) drug, Days 1-4; for development of tolerance to the analgesic effect (PWL): repeated intrathecal dosing
Experimental: Animals underwent complete Freund's adjuvant (CFA) injection under anesthesia. Hyperalgesia was then measured using withdrawal latency of the paw to a thermal stimulus (PWL). […] Drugs were administered using lumbar puncture under anesthesia.
Hyperalgesia was then measured using withdrawal latency of the paw to a thermal stimulus (PWL). […] Drugs were administered using lumbar puncture under anesthesia..
To test this, we examined the effects of pharmacologically blocking Smoothened activity in rodent pain models. Injection of Complete Freund's Adjuvant (CFA) into the rat hindpaw causes local inflammation, swelling, and decreased nociceptive thresholds, Stein, C., et al., A. Unilateral inflammation of the Hindpaw in rats as a Model of Prolonged Noxious Stimulation: Alterations in Behavior and Nociceptive Thresholds, Pharmacol Biochem Behav 31, […] (1988). FIG. 11 provides an inflammatory pain paradigm. Here, the hindpaws were injected with saline (sham, n=6), or CFA. […] Similarly, FIG. 10 provides a neuropathic pain paradigm. […] Animals received daily intrathecal injections of vehicle (n=3) or drugs (CP, n=6; MS, n=6; or MS+CP, n=5). Mechanical allodynia was assessed using Von Frey filaments. […] All data are+/−S.E.M.
Animals: Sprague-Dawley rats (male, […]) were housed three to a cage with water and food ad libitum and kept in temperature controlled rooms on a 12:12 hour light-dark cycle, with the dark cycle beginning at 7:00 pm. Animals were habituated to the testing environment for one week prior to testing and all tests were performed in the morning. All protocols were approved by our Institutional Animal Care and Use Committee.
(§1) Drugs and Intermittent Lumbar Puncture: Rats were anesthetized with 2% isoflurane in oxygen. The lumbar region was shaved, prepared with Betadine solution and the intervertebral spaces widened by placing the animal on a plexiglas tube.
Complete Freund's Adjuvant (CFA) […]: Under isoflurane […], the plantar surface of the left hindpaw was cleansed and 100 μl of CFA (Sigma, St. Louis, Mo.) injected using a 25-gauge needle. Animals recovered for 24 hours prior to analgesic testing.
Paw Withdrawal Latency (PWL): PWL was measured by placing the animals in Plexiglas cages (9×22×25 cm.) on a modified Hargreaves Device, consisting of a glass surface maintained at 30° C. A stimulus lamp was focused on the tail with three measurements taken on different portions of the tail. An abrupt flick of the tail secondary to the thermal stimulus was sensed by photodiodes, and this served to terminate the stimulus and stop the timer. Animals were habituated to the device for one week prior to testing and for 30 min before each test session. The intensity of the thermal stimulus used in the TFL test was adjusted so baseline TFL was between 10-12 seconds to 20 second was used as an automatic cutoff time to avoid paw damage. The TFLs at the time points of 15, 30, and 45 minutes post-injection were measured and compared (n=6-8 per group).

[5] = test system: morphine tolerance in rats; experiment: Morphine tolerance assessed by tail flick latency (TFL); type: in vivo
Experimental: (§2) Drugs were administered daily using lumbar puncture under anesthesia. Tolerance was then assessed using tail flick latency (TFL), or the withdrawal latency of the tail to a thermal stimulus. […] On Day 8, all animals received morphine alone.
as §2, §1

[6] = test system: Glil,2-mediated transcription in HaCat cells; details: cited from earlier work
[7] = test system: Ptchl and BCL2 in HaCaT cells; details: cited from earlier work

Structure (SMILES) | Gli-mediated transcription [1] | targeting / binding of Smo [2] | also measured
CC(C)CCC[C@](C)(O)[C@H]1CC[C@H]2[C@@H]3CC=C4C[C@@H](O)CC[C@]4(C)[C@H]3CC[C@@]21C [20α-Hydroxycholesterol] | Activates Gli-mediated transcription in a variety of cell types | Does not bind directly to Smo | –
CC(C)CC[C@H](O)[C@@H](C)[C@H]1CC[C@H]2[C@@H]3CC=C4C[C@@H](O)CC[C@]4(C)[C@H]3CC[C@]12C [22(S)-Hydroxycholesterol] | Activates Gli-mediated transcription in a variety of cell types | Does not bind directly to Smo | –
CC(C)[C@@H](O)CC[C@@H](C)[C@H]1CC[C@H]2[C@@H]3CC=C4C[C@@H](O)CC[C@]4(C)[C@H]3CC[C@]12C [24(S)-Hydroxycholesterol] | Activates Gli-mediated transcription in a variety of cell types | Does not bind directly to Smo | –
C[C@H](CCCC(C)(C)O)[C@H]1CC[C@H]2[C@@H]3CC=C4C[C@@H](O)CC[C@]4(C)[C@H]3CC[C@]12C [25-Hydroxycholesterol] | Activates Gli-mediated transcription in a variety of cell types | Does not bind directly to Smo | –
COc1cccc(CN(C(=O)CC(C)(C)C)[C@H]2C[C@@H](C(=O)N3CCNCC3)N(Cc3ccc4c(c3)OCO4)C2)c1 [Cur-61414] | – | Targets Smo | –
CC1=C2C[C@H]3[C@@H](CC=C4C[C@@H](O)CC[C@@]43C)[C@@H]2CC[C@]12O[C@@H]1C[C@H](C)CN[C@H]1[C@H]2C [Cyclopamine] | – | Targets Smo | analgesic effect on mechanical allodynia (mechanical withdrawal threshold, Von Frey) [3]: Neither morphine or cyclopamine had analgesic effects; also recorded: Neither a sub-clinical dose of morphine nor cyclopamine had analgesic effects; also recorded: neither cyclopamine nor a low dose of morphine had analgesic effects alone; analgesic effect on thermal hyperalgesia (paw withdrawal latency, PWL) [4]: mild analgesic effect that plateaued; analgesic effect on thermal hyperalgesia (paw withdrawal latency, PWL) ([4]; listed as cyclopamine): mild analgesic effect that plateaued; also recorded: had no analgesic effect; reversal of morphine tolerance (tail flick latency, TFL) ([5]; daily lumbar puncture, cyclopamine added to morphine from start, Day 3 or Day 5): completely reversed tolerance within two days; also recorded: reverses the development of morphine tolerance; tolerance on Day 8 after cyclopamine was removed (TFL) ([5]; on Day 8 all animals received morphine alone): animals were not tolerant on Day 8; targeting / binding of Smo ([2]; listed as cyclopamine): target Smo
c1cc(-c2sc(-c3ccncc3)c(-c3ccncc3)c2-c2ccncc2)ccn1 [GANT58] | Represses Gli-medicated transcription in a variety of cell types | – | site of action in the pathway [1]: Acts downstream of Smo and Sufu
CN(C)c1ccccc1CN1CCCN(Cc2ccccc2N(C)C)C1c1ccncc1 [GANT61] | Represses Gli-medicated transcription in a variety of cell types | – | site of action in the pathway [1]: Acts downstream of Smo and Sufu
CS(=O)(=O)c1ccc(C(=O)Nc2ccc(Cl)c(-c3ccccn3)c2)c(Cl)c1 [GDC-0449] | Represses Gli-medicated transcription in a variety of cell types | Targets Smo | –
CC1=C2C[C@H]3[C@@H](CC[C@@H]4C[C@H](NS(C)(=O)=O)CC[C@@]43C)[C@@H]2CC[C@@]2(C1)O[C@@H]1C[C@H](C)CN[C@H]1[C@H]2C [IPI-926] | Represses Gli-medicated transcription in a variety of cell types | Targets Smo | –
CC1=C2C[C@H]3[C@@H](CC=C4CC(=O)CC[C@@]43C)[C@@H]2CC[C@]12O[C@@H]1C[C@H](C)CN(CCNC(=O)CCCCCNC(=O)CCc3ccccc3)[C@H]1[C@H]2C [KAAD-cyclopamine] | – | target Smo | –
C[C@]12C(=O)C=CCC1=CC[C@@H]1[C@@H]2CC[C@]2(O)C(=O)O[C@@]3(C)[C@H]4C[C@]5(C)[C@@H](CO[C@@]16O[C@@]32[C@H]5C6=O)C(=O)O4 [Physalin B] | – | – | Glil,2-mediated transcription [6]: Inhibits Glil,2-mediated transcription in HaCat cells; transcription of Ptchl and BCL2 [7]: Inhibits transcription of Ptchl and BCL2 in HaCaT cells
C[C@@]12C[C@H]3OC(=O)[C@@H]1CO[C@]14O[C@]5([C@H]2C1=O)[C@@](O)(CC[C@H]1[C@H]4C[C@H]2O[C@]24CC=CC(=O)[C@]14C)C(=O)O[C@@]35C [Physalin F] | – | – | Glil,2-mediated transcription [6]: Inhibits Glil,2-mediated transcription in HaCat cells; transcription of Ptchl and BCL2 [7]: Inhibits transcription of Ptchl and BCL2 in HaCaT cells
c1ccc2c(Oc3nc(Nc4ccc(N5CCOCC5)cc4)c4ncn(C5CCCCC5)c4n3)cccc2c1 [Purmorphamine] | Activates Gli-mediated transcription in a variety of cell types | Binds Smo and competes directly with cyclopamine-Smo | –
CNC1CCC(N(Cc2cccc(-c3ccncc3)c2)C(=O)c2sc3ccccc3c2Cl)CC1 (stereo not drawn) [SAG] | Activates Gli-mediated transcription in a variety of cell types | Binds Smo and competes directly with cyclopamine-Smo | –
Cc1nn(-c2ccccc2)c(C)c1/C=N/N1CCN(Cc2ccccc2)CC1 [SANT1] | Represses Gli-medicated transcription in a variety of cell types | Targets Smo | –
CCOc1cc(C(=O)Nc2ccc(Cl)c(-c3nc4ccccc4[nH]3)c2)cc(OCC)c1OCC [SANT2] | Represses Gli-medicated transcription in a variety of cell types | Targets Smo | –
CCc1ccc(-c2ccc(/C=C/C(=O)N3CCCCC3)cc2)nc1 [SANT4] | Represses Gli-medicated transcription in a variety of cell types | Targets Smo | –
O=C1NCc2c1c1c3ccccc3[nH]c1c1[nH]c3ccccc3c21 [Staurosporinone] | – | – | Glil,2-mediated transcription [6]: Inhibits Glil,2-mediated transcription in HaCat cells; transcription of Ptchl and BCL2 [7]: Inhibits transcription of Ptchl and BCL2 in HaCaT cells
C/C1=C\CC(C)(C)/C=C/C(=O)/C(C)=C/CC1 [Zerumbone] | – | – | Glil,2-mediated transcription [6]: Inhibits Glil,2-mediated transcription in HaCat cells; transcription of Ptchl and BCL2 [7]: Inhibits transcription of Ptchl and BCL2 in HaCaT cells
CN1CC[C@]23c4c5ccc(O)c4O[C@H]2[C@@H](O)C=C[C@H]3[C@H]1C5 [morphine] | – | – | analgesic effect on mechanical allodynia (mechanical withdrawal threshold, Von Frey) [3]: Neither morphine or cyclopamine had analgesic effects; also recorded: Neither a sub-clinical dose of morphine nor cyclopamine had analgesic effects; also recorded: neither cyclopamine nor a low dose of morphine had analgesic effects alone; analgesic effect on thermal hyperalgesia (paw withdrawal latency, PWL) [4]: caused analgesia; analgesic effect on thermal hyperalgesia (paw withdrawal latency, PWL) ([4]; listed as Morphine): exhibited analgesic effects; development of tolerance to the analgesic effect (PWL) [4]: tolerance developed with repeated dosing; development of tolerance to the analgesic effect (PWL) ([4]; listed as Morphine): tolerance developed rapidly
